In the supplement of paper PMC11208160:

Assay: recombinant UMI read abundance after kanamycin selection (control-corrected) (log10(CPM+1)); higher = more efficient recombination; extreme values may be limits of the assay; sequences stand for … in AGTGCAGAGAAAATCGGCCAGTTTTCTCTGCCTGCAGTCCGCATGCCGTGGGACCCCTTGGGTTCTAACCTGTTGCCTAGATTTATGCAGCGGACTGCCTTTCTCCCAAAGTGATAAACCGG…AGGTTGGTTTCACT; site = the 11-nt donor
In short: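 After plating on IPTG (0.07 mM) plus kanamycin, or unselected, in two replicates, recombinant UMIs were PCR-amplified across the donor–target junction and sequenced. The cells were Escherichia coli co-electroporated with a UMI-tagged donor and donor-binding-loop pair library and a target plasmid with a fixed target and T7-inducible IS621 bridge recombinase. Values are log10(CPM+1), with CPM averaged over replicates and scaled by control-derived factors.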
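Note: IS621 bridge recombinase in Escherichia coli cells against a fixed T5 target plasmid.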

| Sequence | recombinant UMI read abundance (log10) |
| --- | --- |
| GATTGAACATGGACCGGTTTTCCCGGTAATCCGTATTTGAC (site GATTGAACTGT) | 0 |
| GCGAAGACATGGACCGGTTTTCCCGGTAATCCGTATTTGGG (site GCGAAGTCTCC) | 0.439 |
| TCATCCTCATGGACCGGTTTTCCCGGTAATCCGTATTTGGC (site TCATCCTCTGC) | 0 |
| TAAAGTCCATGGACCGGTTTTCCCGGTAATCCGTATTTGTA (site TAACGTCCTTA) | 0.243 |
| GCCCACGCATGGACCGGTTTTCCCGGTAATCCGTATTTGGA (site GCCCACGCTTC) | 0.94 |
| GCCAAGGCATGGACCGGTTTTCCCGGTAATCCGTATTTGAG (site GCCAAGGCTCT) | 1.49 |
| GCGACGCCATGGACCGGTTTTCCCGGTAATCCGTATTTGTA (site GCAACGCCTTA) | 0.542 |
| CGTTAGACATGGACCGGTTTTCCCGGTAATCCGTATTTGAG (site CGTTAAACTCT) | 0.893 |
| GCGAACCCATGGACCGGTTTTCCCGGTAATCCGTATTTGGG (site GCGAACCCTCC) | 0.0373 |
| ACTGCTACATGGACCGGTTTTCCCGGTAATCCGTATTTGAA (site ACTGCTACTTT) | 0.749 |
| AGATAATCATGGACCGGTTTTCCCGGTAATCCGTATTTGTC (site AGATAATCTGA) | 2.16 |
| CAAGGGCCATGGACCGGTTTTCCCGGTAATCCGTATTTGTG (site CAAGTGCCTCA) | 0.115 |
| TTTGCGGCATGGACCGGTTTTCCCGGTAATCCGTATTTGCA (site TTTGCGGCTCG) | 0 |
| GAGCTCGCATGGACCGGTTTTCCCGGTAATCCGTATTTGAT (site GAGCTCGCTAT) | 2.26 |
| ACTATAACATGGACCGGTTTTCCCGGTAATCCGTATTTGAG (site ACTAAAACTCT) | 0.00383 |
| CGATCATCATGGACCGGTTTTCCCGGTAATCCGTATTTGCT (site CCATCTTCTAG) | 0 |
| TATTGTTCATGGACCGGTTTTCCCGGTAATCCGTATTTGTG (site TATTGTTCTCA) | 0.00773 |
| GCGAAAACATGGACCGGTTTTCCCGGTAATCCGTATTTGCA (site GCGAAAACTGG) | 0 |
| AAAGTATCATGGACCGGTTTTCCCGGTAATCCGTATTTGCA (site AAAGTATCTTG) | 2.86 |
| GTTAGAACATGGACCGGTTTTCCCGGTAATCCGTATTTGGC (site GTTAGCACTGC) | 0.506 |
| AACTCAGCATGGACCGGTTTTCCCGGTAATCCGTATTTGTA (site AACTCAGCTTA) | 1.62 |
| GCCCACACATGGACCGGTTTTCCCGGTAATCCGTATTTGTA (site GCCCACACTTA) | 1.78 |
| CGATCTTCATGGACCGGTTTTCCCGGTAATCCGTATTTGCT (site CGATCATCTAG) | 0 |
| ACCCGAACATGGACCGGTTTTCCCGGTAATCCGTATTTGTC (site ACCCGAACTGA) | 1.95 |
| AGATTATCATGGACCGGTTTTCCCGGTAATCCGTATTTGCA (site AGATTATCTTG) | 2.9 |

| Sequence | recombinant UMI read abundance (log10) |
| --- | --- |
| ACAGTATCATGGACCGGTTTTCCCGGTAATCCGTATTTGCG (site ACAGTATCTCG) | 3.51 |
| TGTAGAACATGGACCGGTTTTCCCGGTAATCCGTATTTGGG (site TGTAGAACTCC) | 0.00647 |
| CTTCTCTCATGGACCGGTTTTCCCGGTAATCCGTATTTGTA (site CTTCTCTCTTG) | 0.558 |
| CGCCGCACATGGACCGGTTTTCCCGGTAATCCGTATTTGCT (site CGCCGTACTAG) | 0 |
| TTAGCGGCATGGACCGGTTTTCCCGGTAATCCGTATTTGTG (site TTAGCTGCTCA) | 0.0387 |
| CCGGTAGCATGGACCGGTTTTCCCGGTAATCCGTATTTGTG (site CCGCTAGCTCA) | 0.0271 |
| TCCACCGCATGGACCGGTTTTCCCGGTAATCCGTATTTGCG (site TCCACTGCTCG) | 0.0248 |
| TTAGCTGCATGGACCGGTTTTCCCGGTAATCCGTATTTGTT (site TTAGCTGCTCA) | 0.187 |
| GGAGCTTCATGGACCGGTTTTCCCGGTAATCCGTATTTGGC (site GGAGCTTCTGC) | 1.5 |
| ATGGGCCCATGGACCGGTTTTCCCGGTAATCCGTATTTGTC (site ATGGGCCCTGA) | 0.504 |
| GTAGGTACATGGACCGGTTTTCCCGGTAATCCGTATTTGCC (site GTAGGTACTGT) | 0.441 |
| TGTCTTCCATGGACCGGTTTTCCCGGTAATCCGTATTTGTC (site TGTCTTCCTGA) | 0 |
| TAAAGTCCATGGACCGGTTTTCCCGGTAATCCGTATTTGTA (site TAAAGTCCTTG) | 0.00546 |
| TCCACCGCATGGACCGGTTTTCCCGGTAATCCGTATTTGCG (site TCTACCGCTCG) | 0.0356 |
| ACCTACACATGGACCGGTTTTCCCGGTAATCCGTATTTGGG (site ACCTACACTCC) | 0.0331 |
| AACCGTCCATGGACCGGTTTTCCCGGTAATCCGTATTTGAT (site AACCCTCCTAT) | 0.00675 |
| CCGGTAGCATGGACCGGTTTTCCCGGTAATCCGTATTTGTG (site CCGTTAGCTCA) | 0.0101 |
| CCAGCATCATGGACCGGTTTTCCCGGTAATCCGTATTTGCT (site CCAGCATCTAG) | 0.0975 |
| CACTCATCATGGACCGGTTTTCCCGGTAATCCGTATTTGCC (site CACTCCTCTGG) | 0.652 |
| CTACGGGCATGGACCGGTTTTCCCGGTAATCCGTATTTGAG (site CTACGGGCTCT) | 1.72 |
| GGGTTCCCATGGACCGGTTTTCCCGGTAATCCGTATTTGTG (site AGGTTCCCTCA) | 0.00854 |
| TACACTTCATGGACCGGTTTTCCCGGTAATCCGTATTTGGC (site TACACTTCTGC) | 0 |
| CGATCATCATGGACCGGTTTTCCCGGTAATCCGTATTTGCT (site CGATCAGCTAG) | 0 |
| CTCGCTACATGGACCGGTTTTCCCGGTAATCCGTATTTGCA (site CTCGCTACTTG) | 2.41 |
| TCGAAGCCATGGACCGGTTTTCCCGGTAATCCGTATTTGGG (site ACGAAGCCTCC) | 0.0545 |

| Sequence | recombinant UMI read abundance (log10) |
| --- | --- |
| CTCTGTTCATGGACCGGTTTTCCCGGTAATCCGTATTTGCC (site CTCTGTTCTGG) | 1.45 |
| AGCCTAGCATGGACCGGTTTTCCCGGTAATCCGTATTTGTG (site AGCCTAGCTCA) | 0.0603 |
| AAGTTCCCATGGACCGGTTTTCCCGGTAATCCGTATTTGTG (site AGGTTCCCTCA) | 0.0112 |
| CGGCGGACATGGACCGGTTTTCCCGGTAATCCGTATTTGTG (site CGGCGGACTCA) | 1.64 |
| TATATGGCATGGACCGGTTTTCCCGGTAATCCGTATTTGTG (site TATCTGGCTCA) | 0.00271 |
| CGGGAACCATGGACCGGTTTTCCCGGTAATCCGTATTTGAC (site CGGGAACCTTT) | 0.0135 |
| TCCAATGCATGGACCGGTTTTCCCGGTAATCCGTATTTGCC (site TCCAATACTGG) | 0 |
| CTATTCCCATGGACCGGTTTTCCCGGTAATCCGTATTTGCT (site CGATTCCCTAG) | 0.475 |
| TAAAGTCCATGGACCGGTTTTCCCGGTAATCCGTATTTGTA (site TAAAGTCCTAA) | 0.0143 |
| ATCTAGACATGGACCGGTTTTCCCGGTAATCCGTATTTGGG (site AGCTAGACTCC) | 0.313 |
| TTGAATACATGGACCGGTTTTCCCGGTAATCCGTATTTGCA (site TAGAATACTTG) | 1.77 |
| CGACAATCATGGACCGGTTTTCCCGGTAATCCGTATTTGAC (site CGACAATCTGT) | 2.86 |
| CGATCATCATGGACCGGTTTTCCCGGTAATCCGTATTTGCT (site CGAGCATCTAA) | 0.0187 |
| CAATCGACATGGACCGGTTTTCCCGGTAATCCGTATTTGTT (site CGATCGACTAA) | 0.0271 |
| GCTAGCCCATGGACCGGTTTTCCCGGTAATCCGTATTTGAT (site GCTGGCCCTAT) | 0.00566 |
| TCCAAGGCATGGACCGGTTTTCCCGGTAATCCGTATTTGTC (site TCCAAGGCTGA) | 0 |
| CGGGAGCCATGGACCGGTTTTCCCGGTAATCCGTATTTGCC (site CGGGAGCCTGG) | 0 |
| AGGATCCCATGGACCGGTTTTCCCGGTAATCCGTATTTGTG (site AGGGTCCCTCA) | 0.00264 |
| CCATCGACATGGACCGGTTTTCCCGGTAATCCGTATTTGTT (site CCATCGACTAA) | 0.266 |
| GACAAACCATGGACCGGTTTTCCCGGTAATCCGTATTTGGT (site GACAAATCTAC) | 0 |
| CGGAATCCATGGACCGGTTTTCCCGGTAATCCGTATTTGTT (site TGGAACCCTAA) | 0.0136 |
| CGATCATCATGGACCGGTTTTCCCGGTAATCCGTATTTGCT (site CGTTCACCTAG) | 0 |
| ACATCTACATGGACCGGTTTTCCCGGTAATCCGTATTTGGG (site ACATCTACTCG) | 0.00576 |
| GAGATCACATGGACCGGTTTTCCCGGTAATCCGTATTTGAT (site GAGATCACTAT) | 2.13 |
| AAAGTATCATGGACCGGTTTTCCCGGTAATCCGTATTTGCA (site AGAGTATCTTG) | 2.83 |
